Test results published in ChEMBL document CHEMBL3217679, “Synthesis and biological activity profile of novel 2-cinnamylidene-1,3-diones related to coruscanone A: promising new antileishmanial agents” (Medchemcomm, 2012).
Activity calls are given as the source filed them. The calls are words filed in the database; no cut-off is given here.

What was measured:
[1] = tested on: Aspergillus fumigatus; test: Antifungal activity against Aspergillus fumigatus ATCC 90906 assessed as growth inhibition after 46 to 50 hrs by alamar blue assay; format: functional, organism-based
[2] = tested on: Plasmodium falciparum; test: Antiparasitic activity against chloroquine-sensitive Plasmodium falciparum D6 assessed as growth inhibition at 16 uM after 48 hrs by pLDH assay; format: functional, organism-based
[3] = tested on: Nakaseomyces glabratus; test: Antifungal activity against Candida glabrata ATCC 90030 assessed as growth inhibition after 46 to 50 hrs by modified CLSI method; format: functional, organism-based
[4] = Cytotoxicity against African green monkey Vero cells by neutral red assay; format: cell-based; settings: chlorocebus sabaeus, read-out: TC50 (the source's name)
[5] = tested on: Leishmania donovani; test: Antiparasitic activity against Leishmania donovani S1 promastigotes assessed as growth inhibition after 72 hrs by alamar blue assay; format: functional, organism-based; settings: S1, 72 h
[6] = tested on: Cryptococcus neoformans; test: Antifungal activity against Cryptococcus neoformans ATCC 90113 assessed as growth inhibition after 70 to 74 hrs by modified CLSI method; format: functional, organism-based
[7] = tested on: Pichia kudriavzevii; test: Antifungal activity against Candida krusei ATCC 6258 assessed as growth inhibition after 46 to 50 hrs by modified CLSI method; format: functional, organism-based
[8] = tested on: Candida albicans; test: Antifungal activity against Candida albicans ATCC 90028 assessed as growth inhibition after 46 to 50 hrs by modified CLSI method; format: functional, organism-based
[9] = tested on: Plasmodium falciparum; test: Antiparasitic activity against chloroquine-resistant Plasmodium falciparum W2 assessed as growth inhibition at 16 uM after 48 hrs by pLDH assay; format: functional, organism-based

Row | Structure (SMILES) | growth inhibition (GI) [1] | growth inhibition (GI) [2] | IC50 [3] | CC50 [4] | IC50 [5] | IC90 [5] | IC50 [6] | IC50 [7] | growth inhibition (GI) [8] | growth inhibition (GI) [9]
1 | O=C1CCCC(=O)C1=CC=C(c1ccccc1)c1ccccc1 | inactive | inactive | > 60 µM | > 15.7 µM | 10.2 µM | 26.1 µM | 14.5 µM | > 60 µM | inactive | inactive
2 | C/C=C/C=C/C=C1C(=O)CC(C)(C)CC1=O | inactive | inactive | > 60 µM | > 21.8 µM | 45.8 µM | > 100 µM | > 60 µM | > 60 µM | inactive | inactive
3 | COc1ccc(/C=C/C=C(C(C)=O)C(C)=O)cc1 | inactive | inactive | > 60 µM | > 19.5 µM | 38.5 µM | > 100 µM | > 60 µM | > 60 µM | inactive | inactive
4 | O=C1CCC(=O)C1=C/C=C/c1ccc(Br)cc1 | inactive | inactive | > 60 µM | > 16.3 µM | 8.58 µM | 14.1 µM | 26.9 µM | > 60 µM | inactive | inactive
5 | COC(/C=C/c1ccccc1)=C1\C(=O)C=C(C)C1=O [CORUSCANONE A] | – | – | – | 19.3 µM | – | – | – | – | – | –
6 | CC1(C)CC(=O)C(=C/C=C/c2ccccc2)C(=O)C1 | inactive | inactive | 35.3 µM | > 18.7 µM | 20.1 µM | 27.5 µM | 19 µM | > 60 µM | inactive | inactive
7 | COc1ccc(/C=C/C=C2C(=O)CCC2=O)cc1 | inactive | – | 35 µM | > 19.6 µM | 7.01 µM | 19.8 µM | 13.4 µM | 24.1 µM | inactive | –
8 | N=C(N)c1ccc(OCCCCCOc2ccc(C(=N)N)cc2)cc1 [PENTAMIDINE] | – | – | – | – | 3.82 µM | 12.4 µM | – | – | inactive | –
9 | CC1(C)CC(=O)C(=C/C=C/c2ccc(Br)cc2)C(=O)C1 | inactive | inactive | > 60 µM | > 14.3 µM | 9.6 µM | 18.6 µM | 24.7 µM | > 60 µM | inactive | inactive
10 | CC(=O)C(=C/C=C/c1ccccc1)C(C)=O | inactive | inactive | > 60 µM | > 22.2 µM | 19.1 µM | 52.3 µM | > 60 µM | > 60 µM | inactive | inactive
11 | COc1ccc(/C=C/C=C2C(=O)CCCC2=O)cc1 | inactive | inactive | 56 µM | > 18.6 µM | 19.5 µM | 91.7 µM | 44.7 µM | > 60 µM | inactive | inactive
12 | CC1(C)CCC(=O)/C(=C\C=C\c2ccccc2)C1=O | inactive | inactive | > 60 µM | > 18.7 µM | 11.8 µM | 20.1 µM | 19.9 µM | > 60 µM | inactive | inactive
13 | CC(=O)C(=CC=C(c1ccccc1)c1ccccc1)C(C)=O | inactive | inactive | > 60 µM | > 16.4 µM | 9.29 µM | 66.1 µM | 35.3 µM | > 60 µM | inactive | inactive
14 | COc1ccc(/C=C/C=C2C(=O)CC(C)(C)CC2=O)cc1 | inactive | inactive | > 60 µM | > 16.7 µM | 30.6 µM | 68.9 µM | 38.2 µM | > 60 µM | inactive | inactive
15 | C[C@@H]1[C@H](O)[C@@H](C)/C=C/C=C/C=C/C=C/C=C/C=C/C=C/[C@H](O[C@@H]2O[C@H](C)[C@@H](O)[C@H](N)[C@@H]2O)C[C@@H]2O[C@](O)(C[C@@H](O)C[C@@H](O)[C@H](O)CC[C@@H](O)C[C@@H](O)CC(=O)O[C@H]1C)C[C@H](O)[C@H]2C(=O)O [AMPHOTERICIN B] | – | – | 0.28 µM | 7.6 µM | 0.31 µM | 1.09 µM | 0.35 µM | 0.78 µM | inactive | –
16 | O=C1CCC(=O)C1=C/C=C/c1ccccc1 | inactive | inactive | > 60 µM | > 22.4 µM | 2.16 µM | 3.58 µM | 11.9 µM | 42.6 µM | inactive | inactive
17 | C/C=C/C=C/C=C1C(=O)CCCC1=O | inactive | inactive | > 60 µM | > 25 µM | 56.8 µM | > 100 µM | > 60 µM | > 60 µM | inactive | inactive
18 | CC(=O)C(=C/C=C/c1ccc(Br)cc1)C(C)=O | inactive | inactive | > 60 µM | > 16.2 µM | 9.55 µM | 24.6 µM | 11.7 µM | > 60 µM | inactive | inactive
19 | CC1(C)CC(=O)C(=C/C=C/c2ccc(F)cc2)C(=O)C1 | inactive | inactive | 35.6 µM | > 17.5 µM | 10.7 µM | 25 µM | 16.6 µM | > 60 µM | inactive | inactive
20 | CC1(C)CC(=O)C(=CC=C(c2ccccc2)c2ccccc2)C(=O)C1 | inactive | inactive | > 60 µM | > 14.4 µM | 9.38 µM | 26.6 µM | 23.6 µM | > 60 µM | inactive | inactive
21 | COc1ccc(/C=C/C=C2C(=O)CC(c3ccccc3)CC2=O)cc1 (centres undefined) | inactive | inactive | > 60 µM | > 14.3 µM | 7.52 µM | 14.7 µM | > 60 µM | > 60 µM | inactive | inactive
22 | CC(=O)/C(=C\C=C\c1ccccc1)C(=O)OC(C)(C)C | inactive | inactive | > 60 µM | > 17.5 µM | 46.6 µM | 99.2 µM | > 60 µM | > 60 µM | inactive | inactive
